According to PubChem BioAssay (NCI):
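Values below derive from 48-hour exposures of cells grown in 96-well plates, with endpoints linearly interpolated between the two concentrations bracketing the appropriate inhibition level. TGI marks complete inhibition of growth.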

Legend:
Experiment in all cases: NCI tumour cell line growth inhibition, 48 h
[1] = system: DMS 114 small cell lung
[2] = system: HOP-18 NSCLC
[3] = system: LXFL 529 NSCLC
[4] = system: RXF-631 renal
[5] = system: XF 498 CNS
[6] = system: P388 leukemia
[7] = system: P388/ADR leukemia
[8] = system: SN12K1 renal

SMILES | TGI [1] [µM] | TGI [2] [µM] | TGI [3] [µM] | TGI [4] [µM] | TGI [5] [µM] | TGI [6] [µM] | TGI [7] [µM] | TGI [8] [µM]
COc1cc(C(C)O)c[n+](Cc2ccccc2)c1 (stereo not given) | > 100 | > 100 | > 100 | > 100 | > 31.6 | – | – | –
CC(N)Cc1ccc(Cl)c(Cl)c1 (stereo not given) | 48.1 | > 77.1 | 34.9 | – | 23.7 | – | – | –
CN1C(c2ccccc2)CC(=O)C(N)C1c1ccccc1 (stereo not given) | – | > 100 | 37.5 | – | 28.1 | – | – | –
C=C(C)C1Cc2c(c3ccccc3n(C)c2=O)O1 (stereo not given) | > 100 | > 100 | > 100 | > 100 | – | – | – | –
Cn1c(-c2ccccc2)cc(-c2cccs2)c1-c1cccs1 | > 100 | > 100 | – | – | > 100 | > 100 | > 100 | > 41.9
CC12C=CC(=O)C=C1CCC1C3CCC(O)(C(=O)CO)C3(C)CC(O)C12F (stereo not given) | > 100 | – | > 100 | – | > 100 | – | – | –
